Source: patent publication US20110130425A1, “Use of H3 Histaminergic Agonists for the Treatment of Addiction to Drugs of Abuse” (priority 2009, published 2011)
“Also recorded” adds a separate entry of the source.

Tests used:
[1] = test system: reinforcing effects of methamphetamine; conditions: rat self-administration model; Munzar et al., 2004; cited from earlier work
cocaine craving = assay: Extinction phase: cocaine craving (lever pressing with drug no longer available); format: in vivo, rat
Description: II. Extinction Phase: In this phase, the drug ceases to be available to the rats. During the extinction session, the animal learns, suddenly, that the drug can no longer be obtained by pressing the lever, which directs the rat toward an initial impulse of drug seeking. During the extinction session, one estimates the degree of the irrepressible desire of the rat for the drug (craving). After repeated extinction sessions, animals learn to reduce lever pressing and are ready for relapse testing.
Training was conducted in Skinner cages. Rats were trained to tap a lever to obtain saccharose. […] Once the training to obtain saccharose was complete, the rats had access to food ad libitum during the rest of the procedure. An intravenous catheter was subsequently implanted in the jugular vein. The catheter passed underneath the skin to reach the shoulder of the animal, where it was secured with a surgical gauze.
After 3-4 days of recovery, the animals were subjected, in the Skinner cages, to daily sessions of intravenous self-administration of 0.5 mg/kg doses of cocaine each time that they pressed an active lever. […] When this second lever was pressed by the animal, no drug was administered. The self-administration sessions lasted for 2 hours a day, 5 days a week, for at least six weeks.
The third self-administration protocol required the animals to press the lever five times to obtain the cocaine reinforcement.
Rats that succeeded in learning to self-administer the drug according to all three protocols described above were selected to test out the efficiency of the treatment with H3 histaminergic agonists in the extinction and relapse phases.
Drug craving, in this particular case cocaine craving, associated with the unexpected commencement of the extinction phase was studied once the animals had been self-administering the drug daily for at least six weeks.
The experiments began with the self-administration of cocaine for one hour. After this initial self-administration, the rats were divided into two groups. […]

[2] = test system: cocaine self-administration; assay: Same protocol with lever pressing rewarded with drug during the second hour (resumption of self-administration); format: in vivo, rat
Description: In order to differentiate the drug seeking from the reward phenomenon, the same protocol as described above was used, with the proviso that the pressing of the lever was rewarded with drug during the second hour. In the control experiments, when the rats were treated with saline solution, a relatively stable pressing of the lever over the course of time was observed (FIG. 3).
These same rats, days afterwards, were subjected in random order to treatment with saline solution or imetit in doses of 10 mg/kg. After these treatments, the rats recovered stability by means of three sessions of self-administration of drug. […] This decrease was significant for the first 40 minutes of the self-administration period, as compared to the control rats that were pretreated with a saline solution. Thus, over the course of time, the desire for the drug reappeared.

[3] = test system: reinforcement produced by cocaine; assay: Reinforcement phase: cocaine self-administration dose/response; format: in vivo, rat; conditions: rats
[4] = test system: relapse into cocaine seeking; assay: Relapse phase: rehabilitation test, relapse induced by a single dose of cocaine; format: in vivo, rat; conditions: rats
Description: III. Relapse Phase: The relapse phase is studied by using a rehabilitation test. In this phase, the desire of the rats for the drug is again induced by the administration of a single dose of drug. At this instant, the rat again feels the desire to obtain the drug, and so it again begins to press on the lever to obtain the drug, but the drug is not available to the animal.
The behavior of the rats was also studied during the relapse phase, after the animals had gone through the extinction phase. In the extinction phase, the animals received no reward (dose of cocaine) when they pressed the lever. After a minimum of six extinction sessions, lasting 2 hours each session, carried out on consecutive days, the lever-pressing behavior of the rats diminished at least 20 times in comparison to the start of the extinction sessions.
When the number of times that the rats pressed the lever decreased, the animals were subjected to 4 hour rehabilitation sessions (i.e., relapse sessions). These rehabilitation sessions consisted initially of extinction sessions of 3 hours, followed by the automatic release, by an injection, of a saline solution or different doses of cocaine. During the fourth hour, the behavior of the animals was studied in regard to the number of times that they pressed the lever after the administration of the different doses of cocaine (0 mg/kg, 0.5 mg/kg and 2 mg/kg). The number of times that the lever was pressed increased in proportion to the dose of cocaine administered (cocaine at 0.5 mg/kg or 2 mg/kg administered intravenously, or saline in controls) (FIG. 8). However, this increase in the number of times that the animals pressed the lever was not rewarded with the administration of more cocaine. The number of times that the rats pressed the lever was indicative of the rat's need to find the drug. Even so, the pressing of the lever was not rewarded with more cocaine, which differentiates this stage from that corresponding to self-administration. […]

SMILES	reinforcing effects of methamphetamine [1]	tapping of the lever in the first 20 minutes of extinction (cocaine craving; imetit 3 mg/kg i.v. single dose, vs control rats)	latency (time until the rats pressed the lever for the first time) at start of extinction (cocaine craving; imetit 10 mg/kg i.v. single dose, vs control)	impulsiveness in tapping the lever to obtain reward in the first 20 minutes of extinction (cocaine craving; imetit 10 mg/kg i.v. single dose, vs control rats)	latency (time until first lever press) on resumption of self-administration ([2]; imetit 10 mg/kg i.v. pretreatment, vs control, rats)	decrease in number of times the rats tapped the lever during the start of the self-administration phase ([2]; imetit 10 mg/kg pretreatment, vs saline)	period of the self-administration phase over which the decrease in lever tapping was significant ([2]; imetit 10 mg/kg pretreatment, vs saline, rats)	tendency to seek cocaine (self-injections in 2 hours) ([3]; imetit 3 mg/kg single dose one hour before reinforcement, even at 0.03 mg/kg cocaine)	lever pressing after relapse induced by a single dose of cocaine ([4]; imetit 3 mg/kg one hour before, cocaine 0.5 mg/kg, vs saline)	reinforcement produced by cocaine (self-injections in 2 hours) ([3]; thioperamide 3 mg/kg s.c. one hour before, cocaine 0-1.0 mg/kg per injection)	lever pressing after relapse induced by a reminder dose of cocaine ([4]; thioperamide 3 mg/kg s.c. or 6 mg/kg, one hour before, cocaine 0.5 or 2 mg/kg)
NC(=NCc1ccc(Cl)cc1)SCCCc1cnc[nH]1 [clobenpropit]	potentiate the reinforcing effects	–	–	–	–	–	–	–	–	–	–
N=C(N)SCCc1cnc[nH]1 [imetit]	–	did not cause a significant reduction	significantly increased; also recorded: increase in latency	significantly diminished	significantly increased	approximately 50%	40 min	diminished the tendency to seek cocaine; also recorded: self-administer less cocaine	caused a decrease in the pressing on the lever; also recorded: diminished significantly	–	–
S=C(NC1CCCCC1)N1CCC(c2cnc[nH]2)CC1 [thioperamide]	potentiate the reinforcing effects	–	–	–	–	–	–	–	–	no significant increase	did not potentiate the rehabilitation; also recorded: does not produce a significant decline
